Source: PMC7601413, “Protein Disulphide Isomerase A1 Is Involved in the Regulation of Breast Cancer Cell Adhesion and Transmigration via Lung Microvascular Endothelial Cells” (Cancers, 2020)

Assays:
[1] = molecular target: T1, PDIA1 (protein disulphide isomerase A1) (Homo sapiens, UniProt P07237); experiment: insulin reduction turbidimetric assay with recombinant enzyme; type: biochemical; conditions: read-out: Enzymatic Activity, % of Initial / PDIA1
T1 construct: gene P4HB; recombinant, full length, 18-508aa, His-tag, E. coli
T1 sequence (P07237 18-508): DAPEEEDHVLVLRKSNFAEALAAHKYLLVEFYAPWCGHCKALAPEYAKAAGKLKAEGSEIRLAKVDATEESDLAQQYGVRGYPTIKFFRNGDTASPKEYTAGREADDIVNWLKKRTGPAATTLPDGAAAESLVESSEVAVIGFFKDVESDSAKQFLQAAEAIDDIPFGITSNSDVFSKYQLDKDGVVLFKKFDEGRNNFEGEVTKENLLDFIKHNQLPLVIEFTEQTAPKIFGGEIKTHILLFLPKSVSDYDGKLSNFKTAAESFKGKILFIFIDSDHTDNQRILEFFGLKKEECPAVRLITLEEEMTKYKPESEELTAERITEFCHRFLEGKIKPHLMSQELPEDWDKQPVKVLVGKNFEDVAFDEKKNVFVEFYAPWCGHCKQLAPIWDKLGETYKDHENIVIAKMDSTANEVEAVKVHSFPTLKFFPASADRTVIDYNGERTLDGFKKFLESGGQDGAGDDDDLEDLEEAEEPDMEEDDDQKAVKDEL

PDIA3 = molecular target: T2, PDIA3 (Homo sapiens, UniProt P30101); experiment: as above; type: biochemical; conditions: read-out: Enzymatic Activity, % of Initial / PDIA3
T2 construct: recombinant, 25-505aa, His-tag, E. coli
T2 sequence (P30101 25-505): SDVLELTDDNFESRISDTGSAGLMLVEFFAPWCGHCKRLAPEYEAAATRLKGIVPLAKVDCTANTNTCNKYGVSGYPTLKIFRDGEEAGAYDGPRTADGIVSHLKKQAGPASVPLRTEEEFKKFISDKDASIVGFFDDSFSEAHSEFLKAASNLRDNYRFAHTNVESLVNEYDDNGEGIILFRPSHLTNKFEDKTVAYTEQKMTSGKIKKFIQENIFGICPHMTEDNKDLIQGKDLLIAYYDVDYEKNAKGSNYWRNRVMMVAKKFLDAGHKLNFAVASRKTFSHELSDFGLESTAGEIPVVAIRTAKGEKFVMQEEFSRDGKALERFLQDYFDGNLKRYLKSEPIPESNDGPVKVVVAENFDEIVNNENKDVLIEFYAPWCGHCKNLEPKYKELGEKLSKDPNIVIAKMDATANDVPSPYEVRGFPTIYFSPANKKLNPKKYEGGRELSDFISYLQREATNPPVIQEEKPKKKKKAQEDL

IC50 [1]: 2.1 µM | IC50 (PDIA3): 127 µM
Substance: bepristat 2a
